In US20260001834A1, “COMPOUND OR SALT THEREOF, LIPID COMPOSITION, PHARMACEUTICAL COMPOSITION, AND DELIVERY CARRIER” (FUJIFILM Corporation, priority 2023, published 2026):

What was measured:
[1] = Particle diameter and polydispersity index (PdI) of mRNA-encapsulating lipid nanoparticles; assay type: physicochemical; conditions: EPO mRNA-encapsulating lipid nanoparticles, compound:DSPC:cholesterol:DMG-PEG2000=50:10:38.5:1.5; diluted with PBS
Description: (§1) The compounds shown in Table 9, 1,2-distearoyl-sn-glycero-3-phosphocholine (product name: COATSOME® MC-8080; NOF corporation) (hereinafter, DSPC), cholesterol (product name: Cholesterol HP; Nippon Seika Co., Ltd.), and 1,2-dimyristoyl-rac-glycero-3-(methylpolyoxyethylene 2000) (hereinafter, DMG-PEG2000) (product name: SUNBRIGHT® GM-020; NOF corporation) were dissolved in ethanol at a molar ratio (mol %) of compounds shown in Table 9:1,2-distearoyl-sn-glycero-3-phosphocholine:cholesterol:DMG-PEG2000=50:10:38.5:1.5 such that the total lipid concentration was 12.5 mmol/L, thereby obtaining an oil phase.
(§2) EPO mRNA (product name: CleanCap EPO mRNA (5moU); TriLink) was diluted with 50 mmol/L citrate buffer having a pH 4.0 such that the weight ratio of total lipid concentration to mRNA concentration is about 20:1, thereby obtaining a water phase. Then, the water phase and the oil phase were mixed together using NanoAssemblr (Precision NanoSystems) such that the volume ratio of water phase:oil phase was 3:1, and the mixed solution was 2-fold diluted with phosphate buffered physiological saline (PBS) or water, thereby obtaining a dispersion liquid of mRNA lipid nanoparticles. The dispersion liquid was dialyzed with 20 mM Tris buffer solution containing 8% sucrose using a dialysis cassette (Slide-A-Lyzer G2, MWCO: 10 kD, Thermo Fisher Scientific) to remove ethanol, thereby obtaining EPO mRNA-encapsulating lipid nanoparticles.
The particle diameter and the polydispersity index (PdI) of the mRNA-encapsulating lipid nanoparticles were obtained by measuring a dispersion liquid of lipid nanoparticles diluted with phosphate buffered physiological saline (PBS) using a particle size analyzer NanoSAQLA (Otsuka Electronics Co., Ltd.).

ICR mice [2] = assay: EPO expression level in mice after intravenous EPO mRNA lipid nanoparticles (human EPO ELISA of plasma); assay type: in vivo; conditions: mRNA dosage 0.1 mg/kg, plasma 6 hours after administration, Comparative Example set to 1
Description: as §1, §2
(§3) The dispersion liquid of mRNA lipid nanoparticles prepared in above <Preparation of EPO mRNA-encapsulating lipid nanoparticles> was intravenously administered to ICR mice at a mRNA dosage of 0.1 mg/kg. 6 hours after the administration, blood was collected from the caudal vena cava, thereby obtaining plasma. The human EPO […] was quantified by using the obtained blood plasma and Erythropoietin (EPO) Human Elisa Kit (Abcam.plc). The quantitative value is described as a relative amount of EPO protein in a case where Comparative Example is set to 1.

[3] = Encapsulation rate of mRNA in lipid nanoparticles; assay type: physicochemical; conditions: EPO mRNA-encapsulating lipid nanoparticles, compound:DSPC:cholesterol:DMG-PEG2000=50:10:38.5:1.5
Description: as §1, §2
<Evaluation of Encapsulation Rate of mRNA> (Quantification of Total mRNA Concentration)
EPO mRNA was diluted with MilliQ water to prepare a diluted sample in 2-fold dilution series from 100 μg/mL to 3.1 μg/mL, and a standard solution for calibration was prepared. 50 μL of the standard solution for calibration or the mRNA lipid nanoparticles was mixed with 450 μL of methanol to prepare a measurement solution.
The absorbance of each measurement solution at 260 nm and 330 nm was measured using a UV plate reader (Multiskan Go, Thermo Fisher Scientific), the absorbance at 330 nm was subtracted from the absorbance at 260 nm, and the result was used as the absorbance of each measurement solution. The total water phase nucleic acid concentration was calculated from the calibration curve using the absorbance of each sample measurement solution.
(Quantification of mRNA Concentration in Outer Water Phase)
The concentration of the outer water phase nucleic acid was quantified by a standard addition method using a QuanT-iT RiboGreen RNA Assay Kit (Thermo Fisher Scientific). First, a 20×TE buffer included in the above kit was diluted with water, thereby obtaining a 1×TE buffer. TE represents Tris/EDTA (ethylenediaminetetraacetic acid). EPO mRNA was diluted with a TE buffer such that the final concentration was 0 to 400 ng/mL to prepare a nucleic acid diluted series. 10 μL of mRNA lipid nanoparticles diluted 5-fold with TE buffer and 90 μL of a nucleic acid dilution series were mixed in a 96-well plate, 100 μL of a Ribogreen reagent diluted 200-fold with TE buffer was added to each well, and then fluorescence (excitation wavelength: 485 nm, fluorescence wavelength: 535 nm) was measured using a fluorescence plate reader (Infinite 200 Pro M nano+, TECAN). From the obtained results, the outer water phase nucleic acid concentration of each measurement solution was calculated according to the standard addition method.
(Calculation of Encapsulation Rate)
By using the quantification results of the total mRNA concentration and the mRNA concentration in the outer water phase that were obtained through the above steps, the mRNA encapsulation rate of the mRNA lipid nanoparticles was calculated according to the following Equation.

ICR mice [4] = assay: EPO expression level in mice, dose dependency (human EPO ELISA of plasma); assay type: in vivo; conditions: intravenous, plasma 6 hours after administration
Description: as §1, §2
as §3, with “0.1, 0.5, and 1” for “0.1”, “where the amount of EPO protein at the time of 0.1 mg/kg administration in” for “where”

Row | Particle diameter (nm) [1] | PdI [1] | Nucleic acid encapsulation rate [3] | Compound | Relative amount of EPO protein (with respect to Comparative Example 1) (ICR mice [2]) | Relative amount of EPO protein (with respect to Comparative Example 1 at 0.1 mg/kg) (ICR mice [4]; mRNA dosage 0.1 mg/kg) | Relative amount of EPO protein (with respect to Comparative Example 1 at 0.1 mg/kg) (ICR mice [4]; mRNA dosage 0.5 mg/kg) | Relative amount of EPO protein (with respect to Comparative Example 1 at 0.1 mg/kg) (ICR mice [4]; mRNA dosage 1.0 mg/kg)
1 | 98 nm | 0.13 | 94% | CCCCCCCCC(CCCCCC)C(=O)OCCN(CCCN(CC)CC)CCOC(=O)OC(CCCCCC)CCCCC(=O)OCCCCCCC (stereo not shown) [Compound 24, heptyl 3-ethyl-13-hexyl-7-(2-((2-hexyldecanoyl)oxy)ethyl)-11-oxo-10,12-dioxa-3,7-diazaoctadecan-18-oate] | 6.54 | 4.65 | 26.81 | 45.73
2 | 85 nm | 0.11 | 95% | CCCCCCCCC(CCCCCCCC)C(=O)OCCN(CCCN(CC)CC)CCOC(=O)OC(CCCCCC)CCCCC(=O)OCCCCCCC (stereo not shown) [Compound 23, heptyl 3-ethyl-13-hexyl-7-(2-((2-octyldecanoyl)oxy)ethyl)-11-oxo-10,12-dioxa-3,7-diazaoctadecan-1 8-oate] | 4.71 | 4.97 | 25.74 | 43.74
3 | 105 nm | 0.06 | 84% | CCCCCCCOC(=O)CCCC(CCCCCC)OC(=O)OCCN(CCOC(=O)C(CCCCCCC)CCCCCCC)CCN(CC)CC (stereo not shown) [Compound 3, heptyl 3-ethyl-6-(2-((2-heptylnonanoyl)oxy)ethyl)-12-hexyl-10-oxo-9,11-dioxa-3,6-diazahexadecan-16-oate] | 3.16 | 1.91 | 17.26 | 27.22
4 | 161 nm | 0.07 | 50% | CCCCCCCC(=O)OCCN(CCOC(=O)OC(CCCCCC)CCCC(=O)OCC(CCCC)CCCCCC)CCN(CC)CC (stereo not shown) [Comparative Example, 2-butyloctyl 3-ethyl-12-hexyl-6-(2-(octanoyloxy)ethyl)-10-oxo-9,11-dioxa-3,6-diazahexadecan-16-oate, reference compound] | 1.00 | 1.00 | 0.25 | 1.10
